The results in this text go back to patent US9643967B2, “Pyrrolo[3,2-c]pyridine derivatives as TLR inhibitors” (TAKEDA PHARMACEUTICAL COMPANY LIMITED, priority 2013, dated 2017).

The target in this assay is T1, mTLR7 (Mus musculus, UniProt P58681).
T1 construct: Splenocytes isolated from male C57/BL6 mice; from tissue; host or cells: splenocytes from the spleen of male C57BL/6 mice
T1 sequence (P58681 27-1050): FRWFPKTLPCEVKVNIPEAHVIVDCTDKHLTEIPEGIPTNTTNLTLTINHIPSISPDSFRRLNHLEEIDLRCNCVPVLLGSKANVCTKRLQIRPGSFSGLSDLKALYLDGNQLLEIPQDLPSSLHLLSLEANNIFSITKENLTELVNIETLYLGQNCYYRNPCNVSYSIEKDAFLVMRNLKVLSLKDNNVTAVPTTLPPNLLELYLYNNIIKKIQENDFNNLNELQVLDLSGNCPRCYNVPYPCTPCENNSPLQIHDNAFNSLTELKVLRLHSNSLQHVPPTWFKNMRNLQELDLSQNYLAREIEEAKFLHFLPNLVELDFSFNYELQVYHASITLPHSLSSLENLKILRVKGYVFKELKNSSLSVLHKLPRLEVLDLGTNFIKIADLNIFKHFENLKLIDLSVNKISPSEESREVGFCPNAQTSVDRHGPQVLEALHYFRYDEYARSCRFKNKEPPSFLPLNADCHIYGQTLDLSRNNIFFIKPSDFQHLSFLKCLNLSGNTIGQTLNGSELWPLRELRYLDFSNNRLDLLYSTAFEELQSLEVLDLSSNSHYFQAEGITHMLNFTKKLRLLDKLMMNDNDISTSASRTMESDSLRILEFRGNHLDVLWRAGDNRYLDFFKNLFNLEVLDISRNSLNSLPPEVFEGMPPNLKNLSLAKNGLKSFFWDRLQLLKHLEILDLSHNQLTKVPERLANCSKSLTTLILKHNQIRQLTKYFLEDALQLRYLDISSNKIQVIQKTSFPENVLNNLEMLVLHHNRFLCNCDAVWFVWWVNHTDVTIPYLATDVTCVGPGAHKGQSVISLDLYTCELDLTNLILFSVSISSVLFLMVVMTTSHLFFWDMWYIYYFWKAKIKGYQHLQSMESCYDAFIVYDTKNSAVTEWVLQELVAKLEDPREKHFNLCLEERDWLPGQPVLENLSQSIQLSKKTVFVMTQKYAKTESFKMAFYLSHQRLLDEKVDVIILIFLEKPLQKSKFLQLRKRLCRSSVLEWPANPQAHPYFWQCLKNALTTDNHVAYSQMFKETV
Kind of assay: mTLR7 antagonism (IL-6 and TNF-α release assay) in mouse splenocytes, R0006/DOTAP stimulated. The format is cell-based. The source says: mTLR9 and mTLR7 Antagonism (Cytokine Release Assay) in Mouse Splenocytes
TLR7 ligand R0006 (IDT, 5′-rU*rU*rG*rU*rU*rG*rU*rU*rG*rU*rU*rG*rU*rU*rG*rU*rU*rG*rU*rU-3′ (SEQ ID NO:1)), Liposomal transfection reagent—DOTAP (Roche, Cat. No. 11202375001), TLR9 ligand CpG ODN2006 (Sequence: T*C*G*T*C*G*T*T*T*T*G*T*C*G*T*T*T*T*G*T*C*G*T*T; *=phosphorothioate (SEQ ID NO:2)) DMSO (Sigma, D2650), RPMI Powder (Sigma, R6504), Fetal Bovine Serum (Gibco, 10270), Dulbecco's Phosphate Buffered Saline (Sigma, D1408), 96 well plate (Flat bottom, Costar 3599), ELISA kit for IL-6 (EBioscience, 88-7064-77 and TNFa (EBioscience, 88-7346-88), MACS Buffer (AutoMACS Rinsing Solution (Miltenyl Biotec, 130-091-222)+0.05% BSA), RBC lysis buffer (0.85% NH4Cl), 40 μm cell strainer (BD Falcon, 352340) Method: A. Isolation of Mouse Splenocytes
Mouse spleen was isolated from C57BL6 mouse and stored in 1× chilled PBS buffer until further processed. Spleen was transferred to a sterile petriplate and chopped in to 5-6 pieces in presence of MACS buffer (100 μl) with the help of fresh surgical blade and crushed with flat plunger of a sterile syringe. A uniform suspension was prepared by passing cells through a 40 μm cell strainer. Cells were centrifuged at 450×g for 5 minutes at 4° C., supernatant was discarded and pellet dislodged gently, resuspended in 2 ml of pre-warmed (37° C.) RBC lysis buffer at room temperature with continuous gentle mixing with 1 ml pipette. Lysis buffer was neutralized with 12 ml of chilled MACS buffer and cells were passed through 40 μm cell strainer. Cell suspension was collected in 15 ml MACS buffer and centrifuged at 450×g for 5 minutes at 4° C. Pellet was resuspended in 15 ml MACS buffer and centrifuged at 400×g for 5 minutes. Cells were resuspended in 10 ml of RPMI complete medium and viability was estimated by Trypan blue method.
mTLR7 Antagonism (IL-6 and TNF-α Release Assay):
1 mg/ml stock of R0006 was prepared in sterile, endotoxin-free water. R0006 stock was diluted 10 fold with DOTAP and incubated for 30 minutes to form liposome complex (100 μg/ml of R0006). This complex was further diluted 10 fold with incomplete RPMI media (10 μg/ml of R0006) to achieve the final agonist concentration of 1 μg/ml. DOTAP alone was diluted 10 fold in incomplete RPMI media. NCEs were added in a concentration range of 30 μM to 1 nM in respective wells of assay plate, assay medium containing 0.3% DMSO were added to control wells. 0.2 million splenocytes were added to all the wells and incubated at 37° C. in 5% CO2 incubator for 30 minutes. 1 μg/ml of respective agonist was added to all the wells except those were assigned as negative controls and mixed thoroughly. DOTAP was added to negative control wells and incubated overnight at 37° C./5% CO2. The plate was centrifuged at 450×g for 5 minutes at room temperature and the supernatant was collected. ELISA was performed as per manufacturer's protocol. S/B Ratio, % Activity and % Inhibition was calculated using MS Excel. IC50 and inhibition curve was generated using Graph Pad Prism.

The mark [1] stands for this setting: 1 μM, IL-6 release, mouse splenocytes, read-out: mTLR7 inhibitory activity (% at 1 μM), IL-6.
Where [2] appears, read: 1 μM, TNF-α release, mouse splenocytes, read-out: mTLR7 inhibitory activity (% at 1 μM), TNF-α.

Read-outs that look alike come from different tables or passages of the source.

Consider `CC(C)N1CCC(c2ccc(-c3nccc4[nH]c(CN5CCOCC5)cc34)cn2)CC1` [Example A64, 4-[[4-[6-(1-isopropyl-4-piperidyl)-3-pyridyl]-1H-pyrrolo[3,2-c]pyridin-2-yl]methyl]morpholine], for which the inhibition at 1 µM is, setting by setting: under setting [1], 13%; under setting [2], 4%.

`CC(C)N1CCC(c2ccc(-c3nccc4[nH]c(CN5CCOCC5)cc34)cc2)CC1` [Example A70, 4-[[4-[4-(1-isopropyl-4-piperidyl)phenyl]-1H-pyrrolo[3,2-c]pyridin-2-yl]methyl]morpholine]: the inhibition at 1 µM reads like this: under setting [1], 100%; under setting [2], 36%.

As for `CC(C)N1CCN(c2ccc(-c3nccc4[nH]c(CN5CC(O)C5)cc34)cc2)CC1` [Example A72, 1-[[4-[4-(4-isopropylpiperazin-1-yl)phenyl]-1H-pyrrolo[3,2-c]pyridin-2-yl]methyl]azetidin-3-ol], the inhibition at 1 µM is, setting by setting: under setting [1], 0%; under setting [2], 14%.

Turning to `CC(C)N1CCN(c2ccc(-c3nccc4[nH]c(CN5CCC[C@@H]5C(=O)O)cc34)cc2)CC1` [Example A74, (2R)-1-[[4-[4-(4-isopropylpiperazin-1-yl)phenyl]-1H-pyrrolo[3,2-c]pyridin-2-yl]methyl]pyrrolidine-2-carboxylic acid], the inhibition at 1 µM under setting [2] amounted to 32%.

Consider `CC(C)N1CCN(C2CCC(c3nccc4[nH]c(CN5CCOCC5)cc34)CC2)CC1` (stereo not drawn) [Example A80, 4-[[4-[4-(4-isopropylpiperazin-1-yl)cyclohexyl]-1H-pyrrolo[3,2-c]pyridin-2-yl]methyl]morpholine], for which the inhibition at 1 µM was found to be 18% under setting [1] and 16% under setting [2].

`c1cc2[nH]c(CN3CCOCC3)cc2c(-c2ccc(N3CCN(C4COC4)CC3)cc2)n1` [Example A81, 4-[[4-[4-[4-(oxetan-3-yl)piperazin-1-yl]phenyl]-1H-pyrrolo[3,2-c]pyridin-2-yl]methyl]morpholine]: the inhibition at 1 µM turned out to be 25% under setting [1] and 24% under setting [2].

On to `CC(C)N1CCN(c2ccc(-c3nccc4[nH]c(C(=O)N5CCOCC5)cc34)cc2)CC1` [Example A82, [4-[4-(4-isopropylpiperazin-1-yl)phenyl]-1H-pyrrolo[3,2-c]pyridin-2-yl]-morpholino-methanone], for which the inhibition at 1 µM reads like this: (read-out: mTLR7 inhibitory activity (% at 1 μM), IL-6) 86%; (read-out: mTLR7 inhibitory activity (% at 1 μM), TNF-α) 24%.

`CC(C)N1CCN(c2ccc(-c3nccc4[nH]c(CCN5CCOCC5)cc34)cc2)CC1` [Example B1, 4-[2-[4-[4-(4-isopropylpiperazin-1-yl)phenyl]-1H-pyrrolo[3,2-c]pyridin-2-yl]ethyl]morpholine]: the inhibition at 1 µM came to 100% under setting [1] and 100% under setting [2].

On to `CN1CCN(c2ccc(-c3nccc4[nH]c(CCN5CCOCC5)cc34)cc2)CC1` [Example B2, 4-[2-[4-[4-(4-methylpiperazin-1-yl)phenyl]-1H-pyrrolo[3,2-c]pyridin-2-yl]ethyl]morpholine], for which the inhibition at 1 µM reads like this: under setting [1], 100%; under setting [2], 100%.

Consider `Cc1cc2[nH]c(CCN3CCOCC3)cc2c(-c2ccc(N3CCN(C(C)C)CC3)cc2)n1` [Example B3, 4-[2-[4-[4-(4-isopropylpiperazin-1-yl)phenyl]-6-methyl-1H-pyrrolo[3,2-c]pyridin-2-yl]ethyl]morpholine], for which the inhibition at 1 µM under setting [2] is 100%.

Regarding `Cc1cc2[nH]c(CCN3CCOCC3)cc2c(-c2ccc(N3CCN(C)CC3)cc2)n1` [Example B4, 4-[2-[6-methyl-4-[4-(4-methylpiperazin-1-yl)phenyl]-1H-pyrrolo[3,2-c]pyridin-2-yl]ethyl]morpholine], under setting [2], the inhibition at 1 µM came out at 100%.

With `Cc1cc2[nH]c(CCN3CCCCC3)cc2c(-c2ccc(N3CCN(C(C)C)CC3)cc2)n1` [Example B5, 4-[4-(4-isopropylpiperazin-1-yl)phenyl]-6-methyl-2-[2-(1-piperidyl)ethyl]-1H-pyrrolo[3,2-c]pyridine], the inhibition at 1 µM under setting [2] amounted to 100%.

As for `Cc1nc(-c2ccc(N3CCN(C(C)C)CC3)cc2)c2cc(CCN3CCOCC3)[nH]c2c1C` [Example B6, 4-[2-[4-[4-(4-isopropylpiperazin-1-yl)phenyl]-6,7-dimethyl-1H-pyrrolo[3,2-c]pyridin-2-yl]ethyl]morpholine], the inhibition at 1 µM is, setting by setting: under setting [1], 100%; under setting [2], 100%.

Regarding `Cc1nc(-c2ccc(N3CCN(C)CC3)cc2)c2cc(CCN3CCOCC3)[nH]c2c1C` [Example B7, 4-[2-[6,7-dimethyl-4-[4-(4-methylpiperazin-1-yl)phenyl]-1H-pyrrolo[3,2-c]pyridin-2-yl]ethyl]morpholine], the inhibition at 1 µM under setting [2] was found to be 100%.

As for `CCN1CCN(c2ccc(-c3nc(C)c(C)c4[nH]c(CCN5CCOCC5)cc34)cc2)CC1` [Example B8, 4-[2-[4-[4-(4-ethylpiperazin-1-yl)phenyl]-6,7-dimethyl-1H-pyrrolo[3,2-c]pyridin-2-yl]ethyl]morpholine], the inhibition at 1 µM under setting [2] was 88%.

For `Cc1nc(-c2ccc(N3CCN(C(C)C)CC3)cc2)c2cc(CCN3CCCC3)[nH]c2c1C` [Example B10, 4-[4-(4-isopropylpiperazin-1-yl)phenyl]-6,7-dimethyl-2-(2-pyrrolidin-1-ylethyl)-1H-pyrrolo[3,2-c]pyridine], the inhibition at 1 µM came to 100% under setting [1] and 100% under setting [2].

Consider `Cc1cc2c(cc(CCN3CCOCC3)n2C)c(-c2ccc(N3CCN(C(C)C)CC3)cc2)n1` [Example B11, 4-[2-[4-[4-(4-isopropylpiperazin-1-yl)phenyl]-1,6-dimethyl-pyrrolo[3,2-c]pyridin-2-yl]ethyl]morpholine], for which the inhibition at 1 µM is, setting by setting: under setting [1], 100%; under setting [2], 100%.

For the compound `Cc1cc2c(cc(CCN3CCOCC3)n2C)c(-c2ccc(N3CCN(C(C)C)CC3)c(F)c2)n1` [Example B14, 4-[2-[4-[3-fluoro-4-(4-isopropylpiperazin-1-yl)phenyl]-1,6-dimethyl-pyrrolo[3,2-c]pyridin-2-yl]ethyl]morpholine], the inhibition at 1 µM under setting [1] amounted to 100% and the inhibition at 1 µM under setting [2] turned out to be 100%.
